Experimental data: patent US8623843B2, “Antimicrobial compound and preparation thereof” (Shenzhen University, priority 2009, dated 2014)
≈ marks a conversion by molar mass, not a printed value.

Tests used:
Assay type in all cases: cell-based
E. coli (8099) = test: minimum inhibitory / bactericidal concentration for E. coli
E. coli = test: persistent antimicrobial activity of treated glass surface, colony (plate) counting method, E. coli
Method: (§1) The resulting products from the above examples were used for treating a glass surface respectively, a superhydrophilic surface at a contact angle of less than 10° […]. was all obtained. In addition, they were tested for antimicrobial activity and persistent antimicrobial activity using the colony counting method, and the results are shown in table 1.

S. aureas = test: persistent antimicrobial activity of treated glass surface, colony (plate) counting method, S. aureas; design: concentration or dose not given beside the values
Method: as §1

S. aureas (ATCC6538) = test: minimum inhibitory / bactericidal concentration for S. aureas

Row | Compound | minimum bactericidal concentration (MBC) (E. coli (8099)) | minimum inhibitory concentration (MIC) (E. coli (8099)) | persistent antimicrobial activity (plate counting method) (E. coli; wash times 0) | persistent antimicrobial activity (plate counting method) (E. coli; wash times 1) | persistent antimicrobial activity (plate counting method) (E. coli; wash times 5) | persistent antimicrobial activity (plate counting method) (E. coli; wash times 10) | persistent antimicrobial activity (plate counting method) (E. coli; wash times 30) | persistent antimicrobial activity (plate counting method) (S. aureas; wash times 0) | persistent antimicrobial activity (plate counting method) (S. aureas; wash times 1) | persistent antimicrobial activity (plate counting method) (S. aureas; wash times 5) | persistent antimicrobial activity (plate counting method) (S. aureas; wash times 10) | persistent antimicrobial activity (plate counting method) (S. aureas; wash times 30) | minimum bactericidal concentration (MBC) (S. aureas (ATCC6538)) | minimum inhibitory concentration (MIC) (S. aureas (ATCC6538))
1 | CC[N+](CC)(CCC[Si](OC)(OC)OC)CCCS(=O)(=O)[O-] [Embodiment 5, (CH3O)3Si(CH2)3^+N(CH2CH3)2(CH2)3SO3^−] | 20 mg/mL (≈ 55.9 mM) | 15 mg/mL (≈ 42 mM) | 99.9% | 99.7% | 99.0% | 98.7% | 98.0% | 99.9% | 99.9% | 99.5% | 98.8% | 98.2% | 20 mg/mL (≈ 55.9 mM) | 15 mg/mL (≈ 42 mM)
2 | CCO[Si](C)(CCC[N+](C)(C)CC(=O)[O-])OCC [Embodiment 3, (CH3CH2O)2SiCH3(CH2)3^+N(CH3)2CH2CO2^−] | 25 mg/mL (≈ 90.1 mM) | 20 mg/mL (≈ 72.1 mM) | 99.9% | 99.8% | 99.2% | 97.9% | 97.2% | 99.9% | 99.9% | 99.5% | 98.2% | 97.6% | 25 mg/mL (≈ 90.1 mM) | 20 mg/mL (≈ 72.1 mM)
3 | CCC[N+](CCC)(CCC[Si](OC)(OC)OC)CCCS(=O)(=O)[O-] [Embodiment 8, (CH3O)3Si(CH2)3^+N(CH2CH2CH3)2(CH2)3SO3^−] | 20 mg/mL (≈ 51.9 mM) | 15 mg/mL (≈ 38.9 mM) | 99.9% | 99.7% | 99.3% | 98.7% | 98.2% | 99.9% | 99.9% | 99.5% | 98.8% | 98.5% | 20 mg/mL (≈ 51.9 mM) | 15 mg/mL (≈ 38.9 mM)
4 | CC[N+](CC)(CCC[Si](OC)(OC)OC)CCS(=O)(=O)[O-] [Embodiment 6, (CH3O)3Si(CH2)3^+N(CH2CH3)2(CH2)2SO3^−] | 25 mg/mL (≈ 72.8 mM) | 20 mg/mL (≈ 58.2 mM) | 99.9% | 99.8% | 99.3% | 97.9% | 97.2% | 99.9% | 99.9% | 99.5% | 98.2% | 97.6% | 25 mg/mL (≈ 72.8 mM) | 20 mg/mL (≈ 58.2 mM)
5 | CO[Si](CCCNCCNCCCS(=O)(=O)O)(OC)OC [Embodiment 7, (CH3O)3Si(CH2)3NH(CH2)2^+NH2(CH2)3SO3^−] | 30 mg/mL (≈ 87.1 mM) | 25 mg/mL (≈ 72.6 mM) | 99.9% | 99.5% | 99.1% | 98.6% | 98.0% | 99.9% | 99.8% | 99.6% | 99.1% | 98.2% | 30 mg/mL (≈ 87.1 mM) | 25 mg/mL (≈ 72.6 mM)
6 | CCO[Si](CCC[N+](C)(C)CCCS(=O)(=O)[O-])(OCC)OCC [Embodiment 1, (CH3CH2O)3Si(CH2)3^+N(CH3)2(CH2)3SO3^−] | 20 mg/mL (≈ 53.8 mM) | 15 mg/mL (≈ 40.4 mM) | 99.9% | 99.8% | 99.5% | 99.0% | 99.2% | 99.9% | 99.9% | 99.6% | 99.5% | 99.0% | 20 mg/mL (≈ 53.8 mM) | 15 mg/mL (≈ 40.4 mM)
7 | (CH3CH2O)2SiCH3(CH2CH3)3^+N(CH3)2(CH2)3SO3^− [Embodiment 2] | 30 mg/mL | 25 mg/mL | 99.9% | 99.9% | 99.3% | 98.9% | 98.5% | 99.9% | 99.9% | 99.9% | 99.6% | 99.0% | 30 mg/mL | 25 mg/mL
8 | CCO[Si](C)(CCC[N+](C)(C)CCC(=O)[O-])OCC [Embodiment 4, (CH3CH2O)2SiCH3(CH2)3^+N(CH3)2(CH2)2CO2^−] | 20 mg/mL (≈ 68.6 mM) | 10 mg/mL (≈ 34.3 mM) | 99.9% | 99.8% | 99.0% | 98.6% | 98.1% | 99.9% | 99.9% | 99.6% | 98.9% | 98.3% | 20 mg/mL (≈ 68.6 mM) | 10 mg/mL (≈ 34.3 mM)
